Reference: US4348264A, “Photocatalyzed process for producing carbapenams and carbapen-2-ems” (Pfizer Inc., priority 1981, dated 1982)

What was measured:
Type in all cases: cell-based
[1] = test system: Escherichia coli; assay: Standard disc-plate method, zone of inhibition; settings: for zone of inhibition at 25 µg/disc: Escherichia coli
Description: (§1) The utility of the various compounds as intermediates to other compounds of the present invention will be evident from the preceding discussion. The antibacterial activity of these compounds, reflecting their utility in the control of susceptible bacterial infections in man and animals, as animal feed additives for promotion of growth, or as preservatives of materials biodegraded by susceptible microorganisms, is best measured by the standard disc-plate method routinely employed in clinical laboratories for determining the sensitivity of microorganisms to antimicrobial substances. Sensitivity discs are prepared by dipping a standard 6.25 mm. paper disc into a solution of the compound to be tested (conc. 1 mg./ml.) in a volatile solvent (e.g. methylene chloride) and the disc dried, producing discs containing approximately 25 microg. of the compound. The discs are placed on the surface of agar growth media seeded with the test microorganism, previously plated into Petri dishes. The plates are incubated overnight at 35°-37° C. Activity of the test compound is reflected by a zone of inhibition of bacterial growth around the test disc. The diameter of this zone provides a quantitative measure of the activity of the antibacterial substance. The activity of various compounds of the present invention is summarized in Table I. For comparison, results obtained with 10 microg. discs of ampicillin and penicillin G are included as positive controls.

[2] = test system: Staphylococcus aureus; assay: Standard disc-plate method, zone of inhibition
Description: as §1

[3] = test system: Vibrio percolans; assay: Standard disc-plate method, zone of inhibition; settings: for zone of inhibition at 25 µg/disc: 25 microgram discs
Description: as §1

[4] = test system: Micrococcus luteus; assay: Standard disc-plate method, zone of inhibition
Description: as §1

[5] = test system: Bacillus subtilis; assay: Standard disc-plate method, zone of inhibition
Description: as §1

[6] = test system: Staphylococcus aureus (Antibiotic Resistant); assay: Standard disc-plate method, zone of inhibition; settings: for zone of inhibition at 25 µg/disc: 25 microgram discs
Description: as §1

[7] = test system: Proteus morgani; assay: Serial dilution-tube method, MIC; settings: brain heart infusion broth
[8] = test system: Klebsiella pneumoniae; assay: Serial dilution-tube method, MIC; settings: brain heart infusion broth
[9] = test system: Escherichia coli; assay: Serial dilution-tube method, MIC; settings: brain heart infusion broth
[10] = test system: Enterobacter cloacae; assay: Serial dilution-tube method, MIC; settings: brain heart infusion broth
[11] = test system: Pseudomonas aeruginosa; assay: Serial dilution-tube method, MIC; settings: brain heart infusion broth
[12] = test system: Staphylococcus aureus (Antibiotic Resistant); assay: Serial dilution-tube method, MIC; settings: brain heart infusion broth
[13] = test system: Serratia marcescens; assay: Serial dilution-tube method, MIC; settings: brain heart infusion broth
[14] = test system: Escherichia coli (Antibiotic Resistant); assay: Serial dilution-tube method, MIC; settings: brain heart infusion broth
[15] = test system: Staphylococcus aureus; assay: Serial dilution-tube method, MIC; settings: brain heart infusion broth
[16] = Staphylococcus aureus, 25 microgram discs
[17] = Micrococcus luteus, 25 microgram discs
[18] = Bacillus subtilis, 25 microgram discs
[19] = Staphylococcus aureus, antibiotic resistant
[20] = positive control, 10 microgram discs

SMILES | zone of inhibition at 25 µg/disc ([1]; 25 microgram discs) [mm] | zone of inhibition at 25 µg/disc [2, 16] [mm] | zone of inhibition at 25 µg/disc ([3]; Comamonas terrigena) [mm] | zone of inhibition at 25 µg/disc [4, 17] [mm] | zone of inhibition at 25 µg/disc [5, 18] [mm] | zone of inhibition at 25 µg/disc [6, 19] [mm] | further results
CC(=O)OC(C)C1C(=O)N2C(C(=O)O)=C(C)C(O)C12 (stereo not drawn) [AET H H CH3 H OH I, Sodium 6-alpha-(1-Acetoxyethyl)-1-hydroxy-2-methylcarbapen-2-em-3-carboxylate] | 0 | 20 | 16 | 20 | 15 |  | 
Cc1onc(-c2ccccc2)c1C(=O)NC1C(=O)N2C(C(=O)OCOC(=O)C(C)(C)C)C(C)C(=O)C12 (stereo not drawn) [MPI H POM CH3 O I, Pivaloyloxymethyl 2-Methyl-6-(5-methyl-3-phenylisoxazole-4-carboxamido)-1-oxocarbapenam-3-carboxylate] | 0 | 0 | 0 |  | 15 | 11 | 
CC(=O)OC1C(C)=C(C(=O)[O-])N2C(=O)C(C(C)O)C12.[Na+] (stereo not drawn) [HET H H CH3 H OAc I, Sodium 6-alpha-(1-Hydroxyethyl)-1-acetoxy-2-methylcarbapen-2-em-3-carboxylate] |  |  |  |  |  |  | Minimum Inhibitory Concentration [7]: > 200 µg/mL; Minimum Inhibitory Concentration [8]: > 200 µg/mL; Minimum Inhibitory Concentration [9]: > 200 µg/mL; Minimum Inhibitory Concentration [10]: > 200 µg/mL; Minimum Inhibitory Concentration [11]: > 200 µg/mL; Minimum Inhibitory Concentration [12]: 100 µg/mL; Zone of Inhibition ([1]; 25 microgram discs): 0 mm; Zone of Inhibition ([2]; 25 microgram discs): 0 mm; Zone of Inhibition ([4]; 25 microgram discs): 13 mm; Zone of Inhibition ([5]; 25 microgram discs): 16 mm; Minimum Inhibitory Concentration [13]: > 200 µg/mL; Minimum Inhibitory Concentration [14]: > 200 µg/mL
CC1(C)S[C@@H]2[C@H](NC(=O)Cc3ccccc3)C(=O)N2[C@H]1C(=O)O [Penicillin G, reference compound] |  |  |  |  |  |  | Zone of Inhibition [1, 20]: 0 mm; Zone of Inhibition [2, 20]: 32 mm; Zone of Inhibition [3, 20]: 32 mm; Zone of Inhibition [4, 20]: 45 mm; Zone of Inhibition [5, 20]: 33 mm; Zone of Inhibition ([6]; positive control, 10 microgram discs, antibiotic resistant): 0 mm
CC1=C(C(=O)OCOC(=O)C(C)(C)C)N2C(=O)C(C(C)O)C2C1O (stereo not drawn) [HET H POM CH3 H OH I, pivaloyloxymethyl 6-alpha-(1-hydroxyethyl)-1-hydroxy-2-methylcarbapen-2-em-3-carboxylate] |  |  |  |  |  |  | Zone of Inhibition ([1]; 25 microgram discs): 14 mm; Zone of Inhibition ([2]; 25 microgram discs): 27 mm; Zone of Inhibition ([4]; 25 microgram discs): 31 mm; Zone of Inhibition ([5]; 25 microgram discs): 24 mm
CC(=O)OC1C(C)C(C(=O)O)N2C(=O)C(NC(=O)COc3ccccc3)C12 (stereo not drawn) [PMA H H CH3 H OAc I, 1-Acetoxy-2-methyl-6-(2-phenoxyacetamido)carbapenam-3-carboxylic Acid] | 0 | 0 |  | 0 | 0 | 0 | 
CC(=O)OCC1=C(C(=O)OCOC(=O)C(C)(C)C)N2C(=O)CC2C1=O (stereo not drawn) [H H POM CH2OAc O II, Pivaloyloxymethyl 2-Acetoxymethyl-1-oxocarbapen-2-em-3-carboxylate] |  | 0 |  |  |  | 12 | 
CC(=O)OC(C)C1C(=O)N2C(C(=O)O)=C(C)C(OC(C)=O)C12 (stereo not drawn) [AET H H CH3 H OAc I, Sodium 6-alpha-(1-Acetoxyethyl)-1-acetoxy-2-methylcarbapen-2-em-3-carboxylate] | 0 | 21 | 10 | 26 | 25 |  | 
CC(=O)OC1C(C)=C(C(=O)OCOC(=O)C(C)(C)C)N2C(=O)CC12 (stereo not drawn) [H H POM CH3 H OAc II, Pivaloyloxymethyl 1-Acetoxy-2-methylcarbapen-2-em-3-carboxylate] |  | 13 |  | 0 | 14 | 0 | 
CC1=C(C(=O)OCOC(=O)C(C)(C)C)N2C(=O)C(NC(=O)c3c(-c4ccccc4)noc3C)C2C1=O (stereo not drawn) [MPI H POM CH3 O II, Pivaloyloxymethyl 2-Methyl-6-(5-methyl-3-phenylisoxazole-4-carboxamido)-1-oxocarbapen-2-em-3-carboxylate] | 0 | 0 | 0 |  | 21 | 9 | 
CC1(C)S[C@@H]2[C@H](NC(=O)Cc3ccccc3)C(=O)N2[C@H]1C(=O)O [Penicillin, reference compound] |  |  |  |  |  |  | Zone of Inhibition [1, 20]: 16 mm; zone of inhibition at 10 µg/disc ([2]; Staphylococcus aureus, positive control, 10 microgram discs): 31 mm; zone of inhibition at 10 µg/disc ([3]; Comamonas terrigena, positive control, 10 microgram discs): 33 mm; zone of inhibition at 10 µg/disc ([4]; Micrococcus luteus): 45 mm; zone of inhibition at 10 µg/disc ([5]; Bacillus subtilis, positive control, 10 microgram discs): 32 mm; zone of inhibition at 10 µg/disc ([6]; Staphylococcus aureus): 0 mm
CC1=C(C(=O)[O-])N2C(=O)C(C(C)O)C2C1O.[Na+] (stereo not drawn) [HET H H CH3 H OH I] |  |  |  |  |  |  | Minimum Inhibitory Concentration [7]: 25 µg/mL; Minimum Inhibitory Concentration [15]: 1.56 µg/mL; Minimum Inhibitory Concentration [8]: 50 µg/mL; Minimum Inhibitory Concentration [9]: 6.25 µg/mL; Minimum Inhibitory Concentration [10]: 25 µg/mL; Minimum Inhibitory Concentration [11]: 200 µg/mL; Minimum Inhibitory Concentration [12]: 3.12 µg/mL; Zone of Inhibition ([1]; 25 microgram discs): 23 mm; Zone of Inhibition ([2]; 25 microgram discs): 29 mm; Zone of Inhibition ([4]; 25 microgram discs): 39 mm; Zone of Inhibition ([5]; 25 microgram discs): 29 mm; Minimum Inhibitory Concentration [13]: 50 µg/mL; Minimum Inhibitory Concentration [14]: 12.5 µg/mL
CC(=O)OC1C(C)=C(C(=O)O)N2C(=O)CC12 (stereo not drawn) [H H H CH3 H OAc II, Sodium 1-Acetoxy-2-methylcarbapen-2-em-3-carboxylate] | 0 |  | 18 |  | 13 | 8 | 
CC1=C(C(=O)OCOC(=O)C(C)(C)C)N2C(=O)CC2C1O (stereo not drawn) [H H POM CH3 H OH II, Pivaloyloxymethyl 1-Hydroxy-2-methylcarbapen-2-em-3-carboxylate] | 10 | 15 |  | 10 | 15 | 13 | 
COC1(NC(=O)COc2ccccc2)C(=O)N2C(C(=O)OCOC(=O)C(C)(C)C)=C(C)C(=O)C21 (stereo not drawn) [PMA OMe POM CH3 O II, Pivaloyloxymethyl 6-Methoxy-2-methyl-1-oxo-6-(2-phenoxyacetamido)carbapen-2-em-3-carboxylate] | 0 | 8 | 0 |  | 33 | 0 | 
CCN1CCN(C(=O)N[C@@H](C(=O)NC2C(=O)N3C(C(=O)OCOC(=O)C(C)(C)C)=C(C)C(=O)C23)c2ccccc2)C(=O)C1=O (stereo partly drawn) [EPA H POM CH3 O II, Pivaloyloxymethyl 2-Methyl-1-oxo-6-[2-phenyl-2-(4-ethyl-2,3-dioxopiperazine-1-carboxamido)acetamido]carbapen-2-em-3-carboxylate] | 0 | 0 | 20 | 0 | 0 | 0 | 
COC1=C(C(=O)O)N2C(=O)C(C(C)O)C2C1O (stereo not drawn) [HET H H OCH3 H OH I, Sodium 6-alpha-(1-Hydroxyethyl)-1-hydroxy-2-methoxycarbapen-2-em-3-carboxylate] | 11 | 27 |  | 42 | 22 |  | 
